Source: paper PMC8826081, “Three-Carbon Linked Dihydroartemisinin-Isatin Hybrids: Design, Synthesis and Their Antiproliferative Anticancer Activity” (Frontiers in Pharmacology, 2022)

How the values were obtained:
[1] = tested on: A549/DDP (cisplatin-resistant A549 cells); experiment: MTT antiproliferative activity against cisplatin-resistant A549; type: cell-based; details: for IC50: MTT assay, cisplatin-resistant A549 cells
Text: (§1) 3-(4,5-dimethylthiazol-2-yl)-2,5-diphenyltetrazolium bromide (MTT) assay was used to determined the antiproliferative activity of dihydroartemisinin-isatin hybrids 5a-e and 6a-j with three-carbon linker against A549, multidrug-resistant A549/DOX and A549/DDP lung cancer cell lines as well as cytotoxicity towards normal lung epithelial cell line (BEAS-2B). The inhibitory effects were expressed in terms of half maximal inhibitory concentration (IC50) values.
(§2) A549, A549/DOX, and A549/DDP lung cancer cells (2×10^3) were plated in each well of a 96-well plate and were allowed to adhere and spread for 24 h. The […] were added to a final concentration of 100 µM, and the cells were cultured for 24 h at 37 °C. 3-(4,5-dimethyl-2-thiazolyl)-2,5-diphenyltetrazolium bromide (MTT) solution (10 µL) was added to each well, and the cultures were incubated for an additional 4 h. A further 100 µL of […] was added and incubation continued overnight. The absorbance at 540 nm was determined in each well with a 96-well plate reader. The growth of the treated cells was compared with that of untreated cells.

A549 lung cancer cells = experiment: MTT antiproliferative activity against A549; type: cell-based; details: MTT assay, drug-sensitive A549
Text: as §1, §2

[2] = tested on: A549/DOX (doxorubicin-resistant A549 cells); experiment: MTT antiproliferative activity against doxorubicin-resistant A549; type: cell-based; details: for IC50: MTT assay, doxorubicin-resistant A549 cells
Text: as §1, §2

in vitro = details: human
Method: as §1
(§3) The compounds were dissolved in DMSO with concentrations from 1024 to 1 μg/mL. The NIH/3T3 cells were maintained in culture medium at 37 °C under 5% CO2 atmosphere. Cells were seeded in 96-well plates (1×10^4 cell per well) and allowed to recover for 24 h. After 72 h of exposure, cells were harvested and cell viability was assessed by MTT assay. The CC50 values were calculated by Bliss analysis.

[3] = tested on: BEAS-2B normal lung epithelial cell line; experiment: MTT cytotoxicity towards normal lung epithelial cells; details: IC50(BEAS-2B)/IC50(A549)
Method: as §1, §3

[4] = tested on: A549, A549/DOX and A549/DDP lung cancer cell lines; experiment: MTT antiproliferative activity, summarised over the three lung cancer cell lines; type: cell-based; details: MTT assay, span of values over the three lung cancer cell lines; read-out: IC50 (range over A549, A549/DOX and A549/DDP)
Text: as §1, §2

Compound | IC50 ([1]; Homo sapiens) [µM] | RI2 (Resistance index: IC50(A549/DDP)/IC50(A549)) [1] | IC50 (A549 lung cancer cells; Homo sapiens) [µM] | IC50 ([2]; Homo sapiens) [µM] | RI1 (Resistance index: IC50(A549/DOX)/IC50(A549)) [2] | IC50 (in vitro) [µM] | IC50 [4] [µM] | SI (Selectivity index: IC50(BEAS-2B)/IC50(A549)) [3] | IC50 (in vitro; BEAS-2B normal lung epithelial cells) [µM] | IC50 [1] [µM] | IC50 (A549 lung cancer cells) [µM] | IC50 [2] [µM]
C[C@@H]1CC[C@H]2[C@@H](C)C(=O)O[C@@H]3O[C@@]4(C)CC[C@@H]1[C@]32OO4 [Artemisinin] | > 100 |  | > 100 | > 100 |  |  | > 100 |  | > 100 |  |  | 
Cc1ccc2c(c1)C(=O)C(=O)N2CCCOC1O[C@@H]2O[C@@]3(C)CC[C@H]4[C@H](C)CC[C@@H]([C@H]1C)[C@@]24OO3 (stereo partly drawn) [5d, 5-methyl-1-(3-(((3R,5aS,6R,8aS,9R,12R,12aR)-3,6,9-trimethyldecahydro-12H-3,12-epoxy[1,2]dioxepino[4,3-i]isochromen-10-yl)oxy)propyl)indoline-2,3-dione] | > 100 |  | > 100 | > 100 |  | > 100 |  |  |  |  |  | 
C[C@@H]1CC[C@H]2[C@@H](C)C(OCCCN3C(=O)C(=O)c4ccccc43)O[C@@H]3O[C@@]4(C)CC[C@@H]1[C@]32OO4 (stereo partly drawn) [5a, 1-(3-(((3R,5aS,6R,8aS,9R,12R,12aR)-3,6,9-trimethyldecahydro-12H-3,12-epoxy[1,2]dioxepino[4,3-i]isochromen-10-yl)oxy)propyl)indoline-2,3-dione] | > 100 |  | > 100 | > 100 |  | > 100 |  |  |  |  |  | 
C[C@@H]1CC[C@H]2[C@@H](C)C(OCCCN3C(=O)C(=O)c4cc(F)ccc43)O[C@@H]3O[C@@]4(C)CC[C@@H]1[C@]32OO4 (stereo partly drawn) [5b, 5-fluoro-1-(3-(((3R,5aS,6R,8aS,9R,12R,12aR)-3,6,9-trimethyldecahydro-12H-3,12-epoxy[1,2]dioxepino[4,3-i]isochromen-10-yl)oxy)propyl)indoline-2,3-dione] | > 100 |  | > 100 | > 100 |  | > 100 |  |  |  |  |  | 
COc1ccc2c(c1)C(=O)C(=O)N2CCCOC1O[C@@H]2O[C@@]3(C)CC[C@H]4[C@H](C)CC[C@@H]([C@H]1C)[C@@]24OO3 (stereo partly drawn) [5e, 5-methoxy-1-(3-(((3R,5aS,6R,8aS,9R,12R,12aR)-3,6,9-trimethyldecahydro-12H-3,12-epoxy[1,2]dioxepino[4,3-i]isochromen-10-yl)oxy)propyl)indoline-2,3-dione] | > 100 |  | > 100 | > 100 |  | > 100 |  |  |  |  |  | 
C[C@H]1[C@@H](O)O[C@@H]2O[C@@]3(C)CC[C@H]4[C@H](C)CC[C@@H]1[C@@]24OO3 [DHA, Dihydroartemisinin] | 75.9 | 1.09 | 69.4 | 88 | 1.27 | > 100 | 69.4 to 88 | >1.4 |  |  |  | 
C[C@@H]1CC[C@H]2[C@@H](C)C(OCCCN3C(=O)C(=O)c4cc(Cl)ccc43)O[C@@H]3O[C@@]4(C)CC[C@@H]1[C@]32OO4 (stereo partly drawn) [5c, 5-chloro-1-(3-(((3R,5aS,6R,8aS,9R,12R,12aR)-3,6,9-trimethyldecahydro-12H-3,12-epoxy[1,2]dioxepino[4,3-i]isochromen-10-yl)oxy)propyl)indoline-2,3-dione] | 79.8 | 1.49 | 53.6 | 49.7 | 0.93 | > 100 |  | >1.8 |  |  |  | 
N.N.[Cl][Pt][Cl] [cisplatin, reference compound] |  |  |  |  |  |  | 9.38 to 66.9 |  |  | 66.9 | 9.38 | 19.7
COc1cccc2c1C(=O)c1c(O)c3c(c(O)c1C2=O)C[C@@](O)(C(=O)CO)C[C@@H]3O[C@H]1C[C@H](N)[C@H](O)[C@H](C)O1 [doxorubicin, reference compound] | 15.1 |  | 4.06 | 54.3 |  | 93.8 | 4.06 to 54.3 |  |  |  |  | 

Second part, led by results:

IC50 ([1]; Homo sapiens) [µM] | RI2 (Resistance index: IC50(A549/DDP)/IC50(A549)) [1] | IC50 (A549 lung cancer cells; Homo sapiens) [µM] | IC50 ([2]; Homo sapiens) [µM] | RI1 (Resistance index: IC50(A549/DOX)/IC50(A549)) [2] | IC50 (in vitro) [µM] | IC50 [4] [µM] | Compound | SI (Selectivity index: IC50(BEAS-2B)/IC50(A549)) [3] | IC50 (in vitro; BEAS-2B normal lung epithelial cells) [µM] | IC50 [1] [µM] | IC50 (A549 lung cancer cells) [µM] | IC50 [2] [µM]
94.2 | 0.95 | 99.6 | 87.3 | 0.88 | > 100 |  | Cc1ccc2c(c1)C(=NNC(N)=S)C(=O)N2CCCOC1O[C@@H]2O[C@@]3(C)CC[C@H]4[C@H](C)CC[C@@H]([C@H]1C)[C@@]24OO3 (stereo partly drawn) [6h, 2-(5-methyl-2-oxo-1-(3-(((3R,5aS,6R,8aS,9R,12R,12aR)-3,6,9-trimethyldecahydro-12H-3,12-epoxy[1,2]dioxepino[4,3-i]isochromen-10-yl)oxy)propyl)indolin-3-ylidene)hydrazine-1-carbothioamide] | >1.0 |  |  |  | 
31.9 | 1.29 | 24.7 | 26.9 | 1.08 | > 100 |  | C[C@@H]1CC[C@H]2[C@@H](C)C(OCCCN3C(=O)C(=NO)c4cc(Cl)ccc43)O[C@@H]3O[C@@]4(C)CC[C@@H]1[C@]32OO4 (stereo partly drawn) [6f, 5-chloro-3-(hydroxyimino)-1-(3-(((3R,5aS,6R,8aS,9R,12R,12aR)-3,6,9-trimethyldecahydro-12H-3,12-epoxy[1,2]dioxepino[4,3-i]isochromen-10-yl)oxy)propyl)indolin-2-one] | >4.0 |  |  |  | 
60.2 | 1.17 | 51.6 | 73.5 |  | > 100 |  | COc1ccc2c(c1)C(=NO)C(=O)N2CCCOC1O[C@@H]2O[C@@]3(C)CC[C@H]4[C@H](C)CC[C@@H]([C@H]1C)[C@@]24OO3 (stereo partly drawn) [6i, 3-(hydroxyimino)-5-methoxy-1-(3-(((3R,5aS,6R,8aS,9R,12R,12aR)-3,6,9-trimethyldecahydro-12H-3,12-epoxy[1,2]dioxepino[4,3-i]isochromen-10-yl)oxy)propyl)indolin-2-one] | >1.9 |  |  |  | 
> 100 |  | > 100 | > 100 |  | > 100 |  | C[C@@H]1CC[C@H]2[C@@H](C)C(OCCCN3C(=O)C(=NNC(N)=O)c4cc(F)ccc43)O[C@@H]3O[C@@]4(C)CC[C@@H]1[C@]32OO4 (stereo partly drawn) [6d, 2-(5-fluoro-2-oxo-1-(3-(((3R,5aS,6R,8aS,9R,12R,12aR)-3,6,9-trimethyldecahydro-12H-3,12-epoxy[1,2]dioxepino[4,3-i]isochromen-10-yl)oxy)propyl)indolin-3-ylidene)hydrazine-1-carboxamide] |  |  |  |  | 
> 100 |  | > 100 | > 100 |  | > 100 |  | C[C@@H]1CC[C@H]2[C@@H](C)C(OCCCN3C(=O)C(=NNC(N)=O)c4ccccc43)O[C@@H]3O[C@@]4(C)CC[C@@H]1[C@]32OO4 (stereo partly drawn) [6b, 2-(2-oxo-1-(3-(((3R,5aS,6R,8aS,9R,12R,12aR)-3,6,9-trimethyldecahydro-12H-3,12-epoxy[1,2]dioxepino[4,3-i]isochromen-10-yl)oxy)propyl)indolin-3-ylidene)hydrazine-1-carboxamide] |  |  |  |  | 
40.7 | 0.77 | 52.6 | 78.5 |  | > 100 |  | COc1ccc2c(c1)C(=NNC(N)=S)C(=O)N2CCCOC1O[C@@H]2O[C@@]3(C)CC[C@H]4[C@H](C)CC[C@@H]([C@H]1C)[C@@]24OO3 (stereo partly drawn) [6j, 2-(5-methoxy-2-oxo-1-(3-(((3R,5aS,6R,8aS,9R,12R,12aR)-3,6,9-trimethyldecahydro-12H-3,12-epoxy[1,2]dioxepino[4,3-i]isochromen-10-yl)oxy)propyl)indolin-3-ylidene)hydrazine-1-carbothioamide] | >1.9 |  |  |  | 
49.7 | 0.89 | 55.5 | 29.9 | 0.54 | > 100 |  | Cc1ccc2c(c1)C(=NO)C(=O)N2CCCOC1O[C@@H]2O[C@@]3(C)CC[C@H]4[C@H](C)CC[C@@H]([C@H]1C)[C@@]24OO3 (stereo partly drawn) [6g, 3-(hydroxyimino)-5-methyl-1-(3-(((3R,5aS,6R,8aS,9R,12R,12aR)-3,6,9-trimethyldecahydro-12H-3,12-epoxy[1,2]dioxepino[4,3-i]isochromen-10-yl)oxy)propyl)indolin-2-one] | >1.8 |  |  |  | 
28.8 | 1.24 | 23.2 | 36.6 | 1.57 | > 100 |  | C[C@@H]1CC[C@H]2[C@@H](C)C(OCCCN3C(=O)C(=NNC(N)=S)c4ccccc43)O[C@@H]3O[C@@]4(C)CC[C@@H]1[C@]32OO4 (stereo partly drawn) [6c, 2-(2-oxo-1-(3-(((3R,5aS,6R,8aS,9R,12R,12aR)-3,6,9-trimethyldecahydro-12H-3,12-epoxy[1,2]dioxepino[4,3-i]isochromen-10-yl)oxy)propyl)indolin-3-ylidene)hydrazine-1-carbothioamide] | >4.3 |  |  |  | 
